Test results published in US12612407B2, “Imidazo[2,1-f][1,2,4]triazin-4-amine derivatives as TLR7 agonist” (BEIGENE, LTD., priority 2020, dated 2026).

What was measured:
human TLR 8 protein = target: T1, human TLR 8 protein (Homo sapiens, UniProt Q9NR97); experiment: TLR8 Stimulation determined using HEK-Blue Detection; assay type: cell-based; conditions: HEK-Blue hTLR8 cells, 16 hr, percentages of maximum activation with Resiquimod or Motolimod, Table 3
T1 construct: expressed in transfected cells; host or cells: HEK293 (HEK-Blue hTLR8)
T1 sequence (Q9NR97 27-1041): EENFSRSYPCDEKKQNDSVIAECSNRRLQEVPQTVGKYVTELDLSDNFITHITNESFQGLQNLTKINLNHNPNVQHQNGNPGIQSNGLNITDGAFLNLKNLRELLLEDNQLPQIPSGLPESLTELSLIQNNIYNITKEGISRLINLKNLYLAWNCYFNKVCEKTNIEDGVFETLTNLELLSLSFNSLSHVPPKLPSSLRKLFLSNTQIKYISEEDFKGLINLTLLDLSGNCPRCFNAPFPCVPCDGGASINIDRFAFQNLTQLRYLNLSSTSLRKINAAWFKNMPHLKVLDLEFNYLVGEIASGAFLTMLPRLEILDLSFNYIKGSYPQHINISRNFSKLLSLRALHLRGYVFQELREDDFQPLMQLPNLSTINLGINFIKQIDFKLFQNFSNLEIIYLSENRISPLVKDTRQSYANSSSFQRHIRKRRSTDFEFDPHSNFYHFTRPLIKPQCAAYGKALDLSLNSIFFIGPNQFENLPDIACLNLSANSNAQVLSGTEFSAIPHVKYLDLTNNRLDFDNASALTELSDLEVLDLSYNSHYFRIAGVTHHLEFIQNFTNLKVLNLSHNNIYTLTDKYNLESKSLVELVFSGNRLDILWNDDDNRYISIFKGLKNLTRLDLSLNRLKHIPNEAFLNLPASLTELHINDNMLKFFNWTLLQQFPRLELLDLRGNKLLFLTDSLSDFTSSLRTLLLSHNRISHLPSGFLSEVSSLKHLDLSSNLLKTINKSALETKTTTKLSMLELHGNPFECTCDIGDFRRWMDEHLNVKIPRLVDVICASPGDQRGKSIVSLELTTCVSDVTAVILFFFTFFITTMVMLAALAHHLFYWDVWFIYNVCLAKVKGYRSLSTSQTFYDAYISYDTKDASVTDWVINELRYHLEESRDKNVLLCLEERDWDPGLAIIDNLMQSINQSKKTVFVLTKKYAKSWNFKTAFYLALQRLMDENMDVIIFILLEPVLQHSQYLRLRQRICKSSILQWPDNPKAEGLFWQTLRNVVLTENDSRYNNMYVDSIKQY
Source text: TLR8 Stimulation determined using HEK-Blue Detection
(§1) This assay was designed for studying the stimulation of human TLR 8 protein in HEK-Blue hTLR8 tool cell line by monitoring the activation of NF-κB. HEK-Blue hTLR8 cells were obtained by co-transfection of the hTLR8 gene and an optimized secreted embryonic alkaline phosphatase (SEAP) reporter gene into HEK293 cells. The SEAP reporter gene was placed under the control of the IFN-β minimal promoter fused to five NF-κB and AP-1-binding sites. Stimulation with a TLR 8 ligand activates NF-κB and AP-1 which induce the expression of SEAP. Levels of SEAP can be easily determined with HEK-Blue Detection, a cell culture medium that allows for real-time detection of SEAP. HEK-Blue Detection contains all the nutrients necessary for cell growth and a specific SEAP color substrate. The hydrolysis of the substrate by SEAP produces a purple/blue color that can be measured with a spectrophotometer.
(§2) When growing to 50-80% confluency, HEK-Blue hTLR7/8 cells were plated into 96-well plate (costar 3599) at a density of 40000 cells/well. Then compounds were added with serial dilutions over 10 points with a 1 nM-10 uM final concentration range in 0.1% DMSO/HEK-Blue Detection. The plates were then incubated for 16 hr at 37° C. in 5% CO2. The optical density at 620-655 nm was read on BMG PHERAstar FSX instrument. The EC50 for each compound was determined by calculating the percentages of the maximum activation identified with Resiquimod or Motolimod.

human TLR7 = target: T2, human TLR7 (Homo sapiens, UniProt Q9NYK1); experiment: TLR7 Stimulation Determined Using HEK-Blue Detection; assay type: cell-based; conditions: HEK-Blue hTLR7 cells, 16 hr, percentages of maximum activation with Resiquimod, Table 1, B233-B247
T2 construct: host or cells: HEK293 (HEK-Blue hTLR7)
T2 sequence (Q9NYK1 27-1049): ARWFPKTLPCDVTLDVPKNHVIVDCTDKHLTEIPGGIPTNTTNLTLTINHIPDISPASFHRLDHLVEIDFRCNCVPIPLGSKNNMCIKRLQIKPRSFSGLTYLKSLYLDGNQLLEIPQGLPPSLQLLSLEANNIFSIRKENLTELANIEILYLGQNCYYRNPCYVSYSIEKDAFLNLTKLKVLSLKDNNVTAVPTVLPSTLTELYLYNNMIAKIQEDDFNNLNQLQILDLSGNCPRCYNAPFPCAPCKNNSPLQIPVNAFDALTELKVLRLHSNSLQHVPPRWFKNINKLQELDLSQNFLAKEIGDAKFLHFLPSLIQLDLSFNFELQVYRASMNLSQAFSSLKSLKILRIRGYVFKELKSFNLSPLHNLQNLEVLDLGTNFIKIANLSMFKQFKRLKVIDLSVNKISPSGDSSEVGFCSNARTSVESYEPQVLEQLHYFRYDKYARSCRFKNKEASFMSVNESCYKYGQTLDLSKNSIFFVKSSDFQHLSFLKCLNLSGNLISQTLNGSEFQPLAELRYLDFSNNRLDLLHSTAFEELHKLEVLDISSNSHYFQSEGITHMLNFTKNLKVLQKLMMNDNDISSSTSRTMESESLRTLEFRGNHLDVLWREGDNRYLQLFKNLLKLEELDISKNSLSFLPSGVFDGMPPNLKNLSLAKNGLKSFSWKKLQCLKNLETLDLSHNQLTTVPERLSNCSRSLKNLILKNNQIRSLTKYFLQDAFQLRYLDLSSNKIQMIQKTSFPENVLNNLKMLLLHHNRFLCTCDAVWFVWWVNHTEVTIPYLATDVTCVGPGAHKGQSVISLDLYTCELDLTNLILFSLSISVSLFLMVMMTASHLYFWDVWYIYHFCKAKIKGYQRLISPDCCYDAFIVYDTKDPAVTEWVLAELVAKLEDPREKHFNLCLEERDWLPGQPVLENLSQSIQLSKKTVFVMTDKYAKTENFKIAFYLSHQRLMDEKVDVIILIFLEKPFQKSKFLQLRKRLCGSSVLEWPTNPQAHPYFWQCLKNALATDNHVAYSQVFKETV
Source text: TLR7 Stimulation Determined Using HEK-Blue Detection
as §1, with “TLR7” for “TLR 8”, “hTLR7” for “hTLR8”
as §2, with “HEK-Blue hTLR7” for “HEK-Blue hTLR7/8”, “a 0.04” for “a 1”, “nM-10 μM” for “nM-10 uM”, “5% CO2 and vortex for 30 s before measurement.” for “5% CO2.”, “with Resiquimod.” for “with Resiquimod or Motolimod.”

Molecule `CCC[C@H](C)Nc1nc(N)c2ncc(Cc3cnc(C4CCNCC4)c(C)c3)n2n1` [Compound B240, (S)-7-((5-methyl-6-(piperidin-4-yl)pyridin-3-yl)methyl)-N2-(pentan-2-yl)imidazo[2,1-f][1,2,4]triazine-2,4-diamine] has an EC50 (human TLR 8 protein) of 1510 nM and an EC50 (human TLR7) of 1 nM.
`CCC[C@H](C)Nc1nc(N)c2ncc(Cc3cnc(N4CCN(C(=O)CN(C)CCNC)CC4)c(C)c3)n2n1` [Compound B244, (S)-1-(4-(5-((4-amino-2-(pentan-2-ylamino)imidazo[2,1-f][1,2,4]triazin-7-yl)methyl)-3-methylpyridin-2-yl)piperazin-1-yl)-2-(methyl(2-(methylamino)ethyl)amino)ethan-1-one] was tested, and the EC50 (human TLR 8 protein) was greater than 10000 nM and the EC50 (human TLR7) was 12 nM.
`CCCC(C)Oc1nc(N)c2ncc(Cc3cnc(N4CCC(CNCC(C)C)CC4)c(C)c3)n2n1` (stereo not drawn) [Compound B234, 7-((6-(4-((isobutylamino)methyl)piperidin-1-yl)-5-methylpyridin-3-yl)methyl)-2-(pentan-2-yloxy)imidazo[2,1-f][1,2,4]triazin-4-amine] gave an EC50 (human TLR 8 protein) of 451 nM and an EC50 (human TLR7) of 5.3 nM.
Work on `CCC[C@H](C)Oc1nc(N)c2ncc(Cc3ccn(C4CCNCC4)c(=O)c3)n2n1` [Compound B243, (S)-4-((4-amino-2-(pentan-2-yloxy)imidazo[2,1-f][1,2,4]triazin-7-yl)methyl)-1-(piperidin-4-yl)pyridin-2(1H)-one] yielded an EC50 (human TLR 8 protein) of 365 nM and an EC50 (human TLR7) of 35 nM.
In the case of `CCC[C@H](C)Nc1nc(N)c2ncc(Cc3cnc(N4CCN(C(=O)CN)CC4)c(C)c3)n2n1` [Compound B246, (S)-2-amino-1-(4-(5-((4-amino-2-(pentan-2-ylamino)imidazo[2,1-f][1,2,4]triazin-7-yl)methyl)-3-methylpyridin-2-yl)piperazin-1-yl)ethan-1-one], the EC50 (human TLR 8 protein) is reported as greater than 10000 nM and the EC50 (human TLR7) is reported as 10.9 nM.
With `CCC[C@H](C)Oc1nc(N)c2ncc(Cc3cnc(N4CCNCC4)c(OC)c3)n2n1` [Compound B241, (S)-7-((5-methoxy-6-(piperazin-1-yl)pyridin-3-yl)methyl)-2-(pentan-2-yloxy)imidazo[2,1-f][1,2,4]triazin-4-amine] the EC50 (human TLR 8 protein) was 445 nM and the EC50 (human TLR7) was 5.5 nM.
In the case of `CCC[C@H](C)Nc1nc(N)c2ncc(Cc3cnc(N4CCC(CN(C)CCNC)CC4)c(C)c3)n2n1` [Compound B245, (S)-7-((5-methyl-6-(4-((methyl(2-(methylamino)ethyl)amino)methyl)piperidin-1-yl)pyridin-3-yl)methyl)-N2-(pentan-2-yl)imidazo[2,1-f][1,2,4]triazine-2,4-diamine], the EC50 (human TLR 8 protein) is reported as 485 nM and the EC50 (human TLR7) is reported as 2.5 nM.
`CCCC(C)Oc1nc(N)c2ncc(Cc3ccc(C4CCNCC4)nc3F)n2n1` (stereo not drawn) [Compound B238, 7-((2-fluoro-6-(piperidin-4-yl)pyridin-3-yl)methyl)-2-(pentan-2-yloxy)imidazo[2,1-f][1,2,4]triazin-4-amine] showed an EC50 (human TLR 8 protein) of 169 nM and an EC50 (human TLR7) of 6.7 nM.
Work on `CCC[C@H](C)Oc1nc(N)c2ncc(Cc3ccc(C4CCNCC4)nc3F)n2n1` [Compound B239, (S)-7-((2-fluoro-6-(piperidin-4-yl)pyridin-3-yl)methyl)-2-(pentan-2-yloxy)imidazo[2,1-f][1,2,4]triazin-4-amine] yielded an EC50 (human TLR 8 protein) of 122 nM and an EC50 (human TLR7) of 3.3 nM.
Work on `CCC[C@H](C)Nc1nc(N)c2ncc(Cc3cnc(N4CCN(CCO)CC4)c(C)c3)n2n1` [Compound B247, (S)-2-(4-(5-((4-amino-2-(pentan-2-ylamino)imidazo[2,1-f][1,2,4]triazin-7-yl)methyl)-3-methylpyridin-2-yl)piperazin-1-yl)ethan-1-ol] yielded an EC50 (human TLR 8 protein) greater than 10000 nM and an EC50 (human TLR7) of 0.6 nM.
`CCCC(O)COc1nc(N)c2ncc(Cc3cnc(N4CCC(CNC)CC4)c(C)c3)n2n1` (stereo not drawn) [Compound B236, 1-((4-amino-7-((5-methyl-6-(4-((methylamino)methyl)piperidin-1-yl)pyridin-3-yl)methyl)imidazo[2,1-f][1,2,4]triazin-2-yl)oxy)pentan-2-ol] was tested, and the EC50 (human TLR 8 protein) was greater than 10000 nM and the EC50 (human TLR7) was 648 nM.
`CCC[C@H](C)Nc1nc(N)c2ncc(Cc3cnc(N4CCN[C@@H](CC#N)C4)c(C)c3)n2n1` [Compound B233, 2-((S)-4-(5-((4-amino-2-(((S)-pentan-2-yl)amino)imidazo[2,1-f][1,2,4]triazin-7-yl)methyl)-3-methylpyridin-2-yl)piperazin-2-yl)acetonitrile] showed an EC50 (human TLR 8 protein) greater than 10000 nM and an EC50 (human TLR7) of 18.4 nM.
